The values below come from EP0028305A1, “Diaryl compounds and pharmaceutical formulations containing them” (THE WELLCOME FOUNDATION LIMITED, priority 1979, dated 1981).

For assay [1], the system named is virus. Nature of the assay: plaque reduction (PR) test. The following applies: read-out: PR(ED50/µM). The class given is cell-based. On the procedure:
(§1) Activity may be detected by the plaque inhibition (PI) test and measured by the plaque reduction (PR) test. Both assays involve the formation of a monolayer cell culture in a petri dish followed by infection with a virus suspension, and then overlaying the culture with nutrient agarose in the form of a gel. This gel ensures that there is no spread of virus throughout the culture and thus areas of localised cell destruction or plaques are formed.
Detectable activity is measured with the plaque reduction assay. A range of concentrations of compounds of known molarity are incorporated in the nutrient agarose overlay. Plaque suppression is proportional to compound concentration. Plaque numbers are expressed as percentages of a control, and a dose response curve may be drawn. From this curve 50% of the effective dose (ED50) may be estimated.

Assay [2] has as its system virus. Nature of the assay: intranasal administration, simulation in vitro (plaque formation, compound applied to petri dish lid). The following applies: lug dissolved in ethanol, applied to lids of petri dishes, ethanol evaporated; compound penetrated the agarose layer. Type of assay: cell-based.
Description: as §1
In the plaque inhibition test a filter paper disc which holds 0.01 ml when impregnated with a solution of a compound is placed on top of the agarose gel. The compound may then diffuse throughout the gel so that its greatest concentration will be around the disc and its lowest concentration towards the periphery of the petri dish. The efficacy of the compound may be detected by observing the zone of inhibition of plaque formation.
Petri dishes were prepared, as for the plaque inhibition test and the confluer sheet of cells was covered with a layer of agarose gel. The compound, of Example 12 (lug) was dissolved in ethanol, and applied to the lids of the petri dishes. When the ethanol had evaporated, leaving the compound spread over the inside of the lids, these were replaced on the petri dishes.

Where [3] appears, read: plaque reduction assay, compound incorporated in nutrient agarose overlay.
[4] abbreviates: second value printed in parentheses in the same cell, meaning not explained.

Structures are written as SMILES. Structures can show the parent of a compound that is named as a salt. Where two headings read alike, the source gives them in different places.

Consider `Clc1ccc(CNc2ccccc2)cc1Cl` [Example 1, N-3,4-dichlorobenzylaniline hydrochloride], for which the EC50 with virus [1] (setting [3]) worked out at 0.17 µM.
Still for that read-out and setting: as for `O=[N+]([O-])c1ccccc1OCc1ccc(Cl)cc1` [Example 2, 4-chlorobenzyl 2-nitrophenyl ether], the figure is 1.2 µM.
For `CCc1ccc(OCc2ccc(Cl)cc2)cc1` [Example 3, 4-Chlorobenzyl 4-ethylphenyl ether], the EC50 with virus [1] (setting [3]) was determined as 0.72 µM.
Consider `CC(C)(C)c1cccc(OCc2ccc(Cl)cc2)c1` [Example 4, 4-Chlorobenzyl 3-t-butylphenyl ether], for which the EC50 with virus [1] (setting [3]) was 1.9 µM; with virus [1] (setting [4]), 5 µM.
In the case of `Clc1ccc(COc2ccc(Cl)c(Cl)c2)cc1Cl` [Example 5, 3,4-Dichlorobenzyl 3,4-dichlorophenyl ether], the EC50 in the assay on virus [1] (setting [3]) was determined as 0.47 µM.
For the molecule `FC(F)(F)c1cccc(OCc2ccccc2)c1` [Example 6, Benzyl 3-trifluoromethylphenyl ether], the EC50 in the assay on virus [1] (setting [3]) stood at 0.66 µM; with virus [1] (setting [4]), 1.7 µM.
`N#Cc1ccc(OCc2ccc(Cl)cc2)cc1` [Example 7, 4-Chlorobenzyl 4-cyanophenyl ether]: the EC50 with virus [1] (setting [3]) amounted to 0.22 µM.
Same read-out and setting: as for `Cc1ccc(COc2ccc(C)cc2)cc1` [Example 8, 4-Methylbenzyl 4-methylphenyl ether], the figure is 0.56 µM.
With `O=C(O)c1ccc(OCc2ccc(Cl)cc2)cc1` [Example 9, 4-Chlorobenzyl 4-carboxyphenyl ether], the EC50 with virus [1] (setting [3]) was found to be 1.6 µM.
On the same count and under the same terms, the value for `Clc1cc(COc2ccccc2)cc(Cl)c1Cl` [Example 10, 3,4,5-Trichlorobenzyl phenyl ether] was 1.6 µM.
Same read-out and setting: the value for `Clc1ccc(COc2ccc(Cl)c(Cl)c2)cc1` [Example 11, 4-Chlorobenzyl 3,4-dichlorophenyl ether] was 0.33 µM.
For `Clc1ccc(CCCc2ccccc2)cc1Cl` [Example 12, 1-(3,4-dichlorophenyl)-3-phenylpropane], the “inhibition of plaque formation” value in the assay on virus [2] is given as “total inhibition”. The EC50 in the assay on virus [1] (setting [3]) is 0.068 µM.
Turning to `OC(CCc1ccc(Cl)cc1)c1ccc(Cl)cc1` (stereo not drawn) [Example 13, 1,3-bis-(4-chlorophenyl)propan-1-ol], in the assay with virus [1] (setting [3]), the EC50 came out at 1.3 µM.
On the same count and under the same terms, as for `OC(CCc1ccc(Cl)c(Cl)c1)c1ccccc1` (stereo not drawn) [Example 14, 3-(3,4-dichlorophenyl)-1-phenylpropan-1-ol], the figure is 0.66 µM.
On the same count and under the same terms, the value for `O=C(CCc1ccc(Cl)c(Cl)c1)c1ccccc1` [Example 15, 3-(3,4-dichlorophenyl)-1-phenylpropan-1-one] was 0.235 µM.
`Clc1ccc(CC=Cc2ccccc2)cc1Cl` [Example 16, 3-(3,4-dichlorophenyl)-1-phenylpropene]: the EC50 in the assay with virus [1] (setting [3]) was 0.19 µM.
Same read-out and setting: the value for `OC(C=Cc1ccc(Cl)c(Cl)c1)c1ccccc1` (stereo not drawn) [Example 17, 3-(3,4-dichlorophenyl)-l-phenylprop-2-en-l-ol] was 1.2 µM; that for `OC(C=Cc1ccc(Cl)cc1)c1ccc(Cl)cc1` (stereo not drawn) [Example 18, 1,3-bis-(4-chlorophenyl)prop-2-en-1-ol] was 1.35 µM.
On to `OC(COc1ccc(Cl)cc1)c1ccc(Cl)cc1` (stereo not drawn) [Example 19, 2-(4-chlorophenoxy)-1-(4-chlorophenyl)ethanol], for which, in the assay with virus [1] (setting [3]), the EC50 was 1.5 µM.
Same read-out and setting: as for `OC(COc1ccc(Cl)c(Cl)c1)c1ccccc1` (stereo not drawn) [Example 20, 2-(3,4-dichloro^phenoxy)-l-phenylethanol], the figure is 2.5 µM.
On the same count and under the same terms, as for `NC(=S)c1ccc(OCc2ccc(Cl)cc2)cc1` [Example 21, 4-(4-chlorobenzyloxy)benzenecarbothioamide], the figure is 0.6 µM; as for `NC(=O)c1ccc(OCc2ccc(Cl)cc2)cc1` [Example 22, 4-(4-chlorobenzyloxy)benzamide], 0.43 µM; as for `OCc1cccc(OCc2ccc(Cl)cc2)c1` [Example 23, 4-chlorobenzyl 3-hydroxymethylphenyl ether], 0.53 µM.
For `OC(CNc1ccc(Cl)cc1)c1ccc(Cl)cc1` (stereo not drawn) [Example 24, 2-(4-chloroanilino)-1-(4-chlorophenyl)ethanol], the EC50 in the assay on virus [1] (setting [3]) was 3 µM.
